Source: patent publication US9206165B2, “Tetrazolo hydrazine derivatives and pharmaceutical composition comprising same as active ingredient for preventing or treating cancer” (INDUSTRY-ACADEMIC COOPERATION FOUNDATION, YEUNGNAM …, priority 2012, dated 2015)

How the values were obtained:
[1] = tested on: MCF-7, MDA-Mb-231 and Zr-75 cell lines; test: In vitro anti-cancer activity in human breast cancer cell lines, MTT (statements pooled over the three lines); assay type: cell-based; conditions: 1×10^−5, 1×10^−6 and 1×10^−7 M, 48 h
Method: (§1) Anti-cancer activities of the compounds f1-f15 on human breast cancer cell line were tested in ER positive (MCF-7) and […] cell lines. The human breast cancer cell lines MCF-7 and MDA-MB-231 were cultured in Dulbecco's Modified Eagle's Medium (DMEM) supplemented with 10% fetal bovine serum (FBS) (HyClone Laboratories, Logan, Utah, USA) and 1% penicillin: streptomycin (Invitrogen, Carlsbad, Calif., USA) in 12 well plates. The test compounds f1-f15 were dissolved in DMSO and one microliter of the stock solution was used per milliliter of the culture to make a working concentration1 1×10^−5, 1×10^−6 and 1×10^−7 M. Each test includes control wells. The cell suspension was diluted to 1×10^4 cells/mL by adding fresh medium, and 1 mL of this suspension was added to the test and control wells. The plates were incubated at 37° C. under CO2 for 24 h. After incubation, the culture media was changed and cells were treated with […] of stock solution. Cells were incubated at 37° C. under CO2 for 48 h. The growth of the cells was checked with a low power microscope and MTT assay was used to confirm the viability. In the similar experiments, the ZR-75 cells were grown in RPMI 1640 (HyClone Laboratories, Logan, Utah, USA) supplemented with 10% fetal bovine serum (FBS) (HyClone Laboratories, Logan, Utah, USA) and 1% penicillin: streptomycin (Invitrogen, Carlsbad, Calif., USA).
(§2) The results for each compound are reported as percent growth (GP %) of treated cells compared to untreated controls. The inhibitory effects were detectable in compounds 2, 8, 10, 12 and 14 among the compounds f1-f15. […] The percent growth inhibition of compounds varied not only with the substituent groups but also with the nature of the cell line.

MCF-7 cells = test: In vitro anti-cancer activity, MTT, MCF-7; assay type: cell-based, human; conditions: ER positive MCF-7; FIG. 2
Method: as §1, §2

[2] = tested on: breast cancer marker genes in MDA-MB-231 cells; test: Gene expression analysis by real time RT-PCR in MDA-MB-231 cells; assay type: cell-based, human; conditions: mRNA
Method: (§3) To investigate the various effects of various cell lines, the expression levels of different breast cancer marker genes were tested after treating the compounds.
(§4) Total RNA was extracted from the cells using Trizol™ reagent, stored in diethylpyrocarbonate-treated water at −80° C. until use. Total 2 μg of RNA was used for cDNA synthesis. All the primer used in examples of the present invention were designed with Primer 3 software (http://frodo.wi.mit.edu) using sequence information listed at NCBI. Following conditions were applied for the RT-PCR: pre-denaturation of the synthesized cDNA at 95° C. for 10 min followed by 40 cycles of denaturation at 95° C. for 33 s, annealing at each gene-specific primer Tm (° C.), and extension at 72° C. for 33 s. 1.2% of the agarose gel electrophoresis were used to verify the purity of the amplified genes.

[3] = tested on: breast cancer marker genes in MCF-7 cells; test: Gene expression analysis by real time RT-PCR in MCF-7 cells; assay type: cell-based, human; conditions: mRNA
Method: as §3, §4

ZR-75 cell line = test: In vitro anti-cancer activity, MTT, ZR-75; assay type: cell-based, human; conditions: ER negative ZR-75; FIG. 2
Method: as §1, with “In the similar experiments, the ZR-75 cells were grown in RPMI 1640 (HyClone Laboratories, Logan, Utah, USA) supplemented with 10% fetal bovine serum (FBS) (HyClone Laboratories, Logan, Utah, USA) and 1% penicillin: streptomycin (Invitrogen, Carlsbad, Calif., USA).” left out

MDA-MB-231 cell line = test: In vitro anti-cancer activity, MTT, MDA-MB-231; assay type: cell-based, human; conditions: ER negative MDA-MB-231; FIG. 2
Method: as §1, with “In the similar experiments, the ZR-75 cells were grown in RPMI 1640 (HyClone Laboratories, Logan, Utah, USA) supplemented with 10% fetal bovine serum (FBS) (HyClone Laboratories, Logan, Utah, USA) and 1% penicillin: streptomycin (Invitrogen, Carlsbad, Calif., USA).” left out

SMILES	melting point [°C]	anti-proliferative activity / inhibitory effects ([1]; FIG. 2)	expression of BRAC-1 ([2]; FIG. 4)	expression of BAX ([3]; FIG. 3)	expression of CD44 ([3]; FIG. 3)	also measured
COc1ccc(C=NNC(=O)Cn2nnnc2-c2ccc3c(c2)OCO3)cc1 [f4, 2-[5-(1,3-benzodioxol-5-yl)-1H-tetrazol-1-yl]-N′-[(4-methoxyphenyl)methylidene]acetohydrazide]	198 to 200	–	–	–	–	–
COc1ccc(C=NNC(=O)Cn2nnnc2-c2ccc3c(c2)OCO3)cc1OC [f8, 2-[5-(1,3-benzodioxol-5-yl)-1H-tetrazol-1-yl]-N′-[(3,4-dimethoxyphenyl)methylidene]acetohydrazide]	200 to 202	excellent anti-proliferative activity	a minimum of two folds decrease	increased more than two fold	increased	anti-proliferative effects in ZR-75 (ZR-75 cell line): more anti-proliferative effects; anti-proliferative effects in MDA-MB-231 (MDA-MB-231 cell line): more anti-proliferative effects; anti-proliferative activity / inhibitory effects ([1]; FIG. 2, listed as 8): detectable; expression of BRAC-1 ([2]; FIG. 4, listed as 8): highly suppressed; expression of CD44 ([3]; FIG. 3, listed as 8): increased about two fold
Cc1ccc(C=NNC(=O)Cn2nnnc2-c2ccc3c(c2)OCO3)cc1 [f6, 2-[5-(1,3-benzodioxol-5-yl)-1H-tetrazol-1-yl]-N′-[(4-methylphenyl)methylidene]acetohydrazide]	203 to 205	–	–	–	–	–
O=C(Cn1nnnc1-c1ccc2c(c1)OCO2)NN=Cc1ccco1 [f13, 2-[5-(1,3-benzodioxol-5-yl)-1H-tetrazol-1-yl]-N′-[furan-2-ylmethylidene]acetohydrazide]	212 to 214	–	–	–	–	–
O=C(Cn1nnnc1-c1ccc2c(c1)OCO2)N/N=C/c1ccc([N+](=O)[O-])cc1 [f14, 2-[5-(1,3-benzodioxol-5-yl)-1H-tetrazol-1-yl]-N′-[(E)-(4-nitrophenyl)methylidene]acetohydrazide]	204 to 206	excellent anti-proliferative activity	a minimum of two folds decrease	increased more than two fold	increased	anti-proliferative activity / inhibitory effects ([1]; FIG. 2, listed as 14): detectable; anti-proliferative effects on MCF-7 cells growth (MCF-7 cells): more anti-proliferative effects
O=C(Cn1nnnc1-c1ccc2c(c1)OCO2)NN=Cc1ccc(Cl)cc1 [f1, 2-[5-(1,3-benzodioxol-5-yl)-1H-tetrazol-1-yl]-N′-[4-chlorophenyl-methylidene]acetohydrazide]	206 to 208	–	–	–	–	–
CCc1ccc(C=NNC(=O)Cn2nnnc2-c2ccc3c(c2)OCO3)cc1 [f11, 2-[5-(1,3-benzodioxol-5-yl)-1H-tetrazol-1-yl]-N′-[(4-ethylphenyl)methylidene]acetohydrazide]	200 to 202	–	–	–	–	–
CCOc1ccc(C=NNC(=O)Cn2nnnc2-c2ccc3c(c2)OCO3)cc1 [f3, 2-[5-(1,3-benzodioxol-5-yl)-1H-tetrazol-1-yl]-N′-[(4-ethoxyphenyl)methylidene]acetohydrazide]	208 to 210	–	–	–	–	–

The next lines start with results.

melting point [°C]	SMILES	anti-proliferative activity / inhibitory effects ([1]; FIG. 2)	expression of BRAC-1 ([2]; FIG. 4)	expression of BAX ([3]; FIG. 3)	expression of CD44 ([3]; FIG. 3)	also measured
208 to 210	O=C(Cn1nnnc1-c1ccc2c(c1)OCO2)NN=Cc1cccc([N+](=O)[O-])c1 [f12, 2-[5-(1,3-benzodioxol-5-yl)-1H-tetrazol-1yl]-N′-[(3-nitrophenyl)methylidene]acetohydrazide]	excellent anti-proliferative activity	a minimum of two folds decrease	increased more than two fold	increased	anti-proliferative activity / inhibitory effects ([1]; FIG. 2, listed as 12): detectable; anti-proliferative effects on MCF-7 cells growth (MCF-7 cells): more anti-proliferative effects
198 to 200	O=C(Cn1nnnc1-c1ccc2c(c1)OCO2)NN=Cc1ccccc1Cl [f2, 2-[5-(1,3-benzodioxol-5-yl)-1H-tetrazol-1-yl]-N′-[(2-chlorophenyl)methylidene]acetohydrazide]	excellent anti-proliferative activity	a minimum of two folds decrease	increased more than two fold	increased	anti-proliferative activity / inhibitory effects ([1]; FIG. 2, listed as 2): detectable
210 to 212	O=C(Cn1nnnc1-c1ccc2c(c1)OCO2)NN=Cc1ccccc1[N+](=O)[O-] [f10, 2-[5-(1,3-benzodioxol-5-yl)-1H-tetrazol-1yl]-N′-[(2-nitrophenyl)methylidene]acetohydrazide]	excellent anti-proliferative activity	a minimum of two folds decrease	increased more than two fold	increased	anti-proliferative activity / inhibitory effects ([1]; FIG. 2, listed as 10): detectable; anti-proliferative effects on MCF-7 cells growth (MCF-7 cells): more anti-proliferative effects; expression of CD44 ([3]; FIG. 3, listed as 10): increased about two fold
196 to 198	CCOc1ccccc1C=NNC(=O)Cn1nnnc1-c1ccc2c(c1)OCO2 [f7, 2-[5-(1,3-benzodioxol-5-yl)-1H-tetrazol-1-yl]-N′-[(2-ethoxyphenyl)methylidene]acetohydrazide]	–	–	–	–	–
204 to 206	O=C(Cn1nnnc1-c1ccc2c(c1)OCO2)NN=Cc1ccccc1 [f5, 2-[5-(1,3-benzodioxol-5-yl)-1H-tetrazol-1yl]-N′-[phenylmethylidene]acetohydrazide]	–	–	–	–	–
